# Laboratory results from PMC11019635, “On-Resin Photochemical Decarboxylative Arylation of Peptides” (Organic Letters, 2023).
# Starred links: 1 amine or outer side, 2 acyl side, 3 side chain; linkers in the order of their positions; H or OH if unused. Non-standard residues stand in square brackets, D forms with d. Residues, ends and D or L forms follow the SMILES beside them. X1 = O=C([C@H](Cc1ccc2c(c1)OC(F)(F)O2)N[*:1])[*:2]; Phe(4-CF3) = N[C@@H](Cc1ccc(C(F)(F)F)cc1)C(=O)O; X2 = N#CCc1ccc(C[C@H](N[*:1])C(=O)[*:2])cc1; Phe(4-CN) = N#Cc1ccc(C[C@H](N)C(=O)O)cc1
# Molecular target: PRMT5/MEP50 complex (Homo sapiens, UniProt O14744+Q9BQA1)
# Sequence (O14744 whole entry, species assumed): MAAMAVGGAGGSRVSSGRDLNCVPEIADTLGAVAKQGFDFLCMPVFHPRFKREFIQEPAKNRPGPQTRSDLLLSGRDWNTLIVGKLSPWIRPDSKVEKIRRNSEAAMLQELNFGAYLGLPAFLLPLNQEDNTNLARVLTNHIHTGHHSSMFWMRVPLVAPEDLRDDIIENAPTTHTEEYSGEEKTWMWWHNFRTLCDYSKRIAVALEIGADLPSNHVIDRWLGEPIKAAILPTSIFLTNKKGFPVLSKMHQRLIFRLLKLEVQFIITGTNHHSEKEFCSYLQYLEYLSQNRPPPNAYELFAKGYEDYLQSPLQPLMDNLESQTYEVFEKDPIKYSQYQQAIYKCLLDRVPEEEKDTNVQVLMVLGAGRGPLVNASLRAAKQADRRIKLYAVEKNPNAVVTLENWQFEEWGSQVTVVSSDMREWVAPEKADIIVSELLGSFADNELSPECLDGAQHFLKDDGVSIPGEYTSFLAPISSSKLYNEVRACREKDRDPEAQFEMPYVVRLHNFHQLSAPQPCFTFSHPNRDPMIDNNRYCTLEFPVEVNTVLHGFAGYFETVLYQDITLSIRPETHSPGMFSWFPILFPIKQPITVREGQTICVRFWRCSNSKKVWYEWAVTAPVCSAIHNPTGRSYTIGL
# Sequence (Q9BQA1 whole entry partner, species assumed): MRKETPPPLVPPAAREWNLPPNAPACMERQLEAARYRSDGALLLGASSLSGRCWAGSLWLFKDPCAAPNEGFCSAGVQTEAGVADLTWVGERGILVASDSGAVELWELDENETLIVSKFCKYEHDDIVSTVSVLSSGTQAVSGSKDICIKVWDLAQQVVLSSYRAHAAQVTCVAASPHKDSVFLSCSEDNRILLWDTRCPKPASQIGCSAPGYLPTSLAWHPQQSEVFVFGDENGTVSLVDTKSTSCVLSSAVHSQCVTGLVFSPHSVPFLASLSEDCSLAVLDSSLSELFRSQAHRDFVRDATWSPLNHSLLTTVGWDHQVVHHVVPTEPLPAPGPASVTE
# Experiment: Competitive fluorescence polarization assay against a tracer peptide binding to the PRMT5/MEP50 complex
# Settings: competitive FP, PRMT5/MEP50 complex; relative to peptide 46
# Text: Next, we used the method to perform a small SAR study on a peptide that we previously identified as an inhibitor of PRMT5 protein–protein interactions.[37] The peptide is derived from the PRMT5 binding protein RioK1 and contains a Phe that is important for high-affinity binding. We prepared a peptide with an Asp residue installed in its place, which was protected using the 2-phenylisopropyl group to avoid aspartimide formation during peptide extension that occurred while using the allyl group.[38] The batch was split, and each portion was reacted with a different Ar–Br to rapidly generate peptides with diverse Phe analogues (Figure 3C). The prepared peptides were then tested in a competitive fluorescence polarization assay against a tracer peptide binding to the PRMT5/MEP50 complex.[37] […]
# h. Competitive Fluorescence Polarization assay
# Evaluation of peptide 42-46 was performed similar to our previously described protocol.3 As tracer, we used peptide 50 from the same report. In brief, the peptides to be tested were serially diluted in buffer (50 mM HEPES, 250 mM NaCl, 1mM TCEP, and 0.01% (v/v) Tween 20, pH 8.0) in a black 384 wells plate in a total volume of 10 μl per well. Next, a mixture of PRMT5:MEP50 complex and tracer peptide 50 in the same buffer was added so that a final protein concentration of 200 nM and final tracer concentration of 1 nM was reached. The mixture was incubated for 1 hour and read on a Tecan Spark plate reader in fluorescence polarization mode set to an excitation wavelength of 485 nm and emission wavelength of 535 nm. Data was analyzed using Graphpad Prism version 9.2.0 and curves were fitted using nonlinear regression (log(inhibitor) vs. response – variable slope (four parameters)).
row,fold improvement in IC50 in comparison to the wild-type peptide 46 [fold],Compound
1,3,CC(=O)N[C@H](C(=O)N1CCC[C@H]1C(=O)NCC(=O)N[C@@H](CCC(N)=O)C(=O)N[C@@H](Cc1ccc(C#N)cc1)C(=O)N[C@@H](CC(=O)O)C(=O)N[C@@H](CC(=O)O)C(=O)N[C@@H](C)C(=O)N[C@@H](CC(=O)O)C(N)=O)C(C)C [compound 42] (Ac-VPGQ[Phe(4-CN)]DDAD-NH2)

# Same assay, conditions: competitive FP; 200 nM PRMT5:MEP50 complex, 1 nM tracer peptide 50; 50 mM HEPES, 250 mM NaCl, 1 mM TCEP, 0.01% Tween 20, pH 8.0; 1 hour incubation; ex 485 nm / em 535 nm; four-parameter fit
row,IC50 [µM],Compound
1,14.6 ± 6.37,CC(=O)N[C@H](C(=O)N1CCC[C@H]1C(=O)NCC(=O)N[C@@H](CCC(N)=O)C(=O)N[C@@H](Cc1ccc(CC#N)cc1)C(=O)N[C@@H](CC(=O)O)C(=O)N[C@@H](CC(=O)O)C(=O)N[C@@H](C)C(=O)N[C@@H](CC(=O)O)C(N)=O)C(C)C [compound 43] (Ac-VPGQ[X2]DDAD-NH2)
2,1.71 ± 0.59,"Ac-VPGQFDDAD-NH2 [compound 46, reference compound]"
3,17.1 ± 8.05,CC(=O)N[C@H](C(=O)N1CCC[C@H]1C(=O)NCC(=O)N[C@@H](CCC(N)=O)C(=O)N[C@@H](Cc1ccc2c(c1)OC(F)(F)O2)C(=O)N[C@@H](CC(=O)O)C(=O)N[C@@H](CC(=O)O)C(=O)N[C@@H](C)C(=O)N[C@@H](CC(=O)O)C(N)=O)C(C)C [compound 45] (Ac-VPGQ[X1]DDAD-NH2)
4,0.56 ± 0.15,CC(=O)N[C@H](C(=O)N1CCC[C@H]1C(=O)NCC(=O)N[C@@H](CCC(N)=O)C(=O)N[C@@H](Cc1ccc(C#N)cc1)C(=O)N[C@@H](CC(=O)O)C(=O)N[C@@H](CC(=O)O)C(=O)N[C@@H](C)C(=O)N[C@@H](CC(=O)O)C(N)=O)C(C)C [compound 42] (Ac-VPGQ[Phe(4-CN)]DDAD-NH2)
5,6.74 ± 3.23,CC(=O)N[C@H](C(=O)N1CCC[C@H]1C(=O)NCC(=O)N[C@@H](CCC(N)=O)C(=O)N[C@@H](Cc1ccc(C(F)(F)F)cc1)C(=O)N[C@@H](CC(=O)O)C(=O)N[C@@H](CC(=O)O)C(=O)N[C@@H](C)C(=O)N[C@@H](CC(=O)O)C(N)=O)C(C)C [compound 44] (Ac-VPGQ[Phe(4-CF3)]DDAD-NH2)
